Assay results taken from the NIST ThermoML archive (doi:10.1021/acs.jced.6b00895).
± gives the expanded uncertainty stated by the source. Values belong to the compound of their own block, whether it stands above or below them.

Details: Liquid, Ebulliometric method (Recirculating still)

- vapor or sublimation pressure (393.15 K): 101.3 ± 1.5 kPa
SMILES: COCC(C)O (centres undefined) [1-methoxy-2-propanol]

- vapor or sublimation pressure (402.65 K): 101.3 ± 1.5 kPa
SMILES: COC(C)CO (centres undefined) [2-methoxy-1-propanol]

- vapor or sublimation pressure (397.67 K): 101.3 ± 1.5 kPa
SMILES: COCCO [2-methoxyethan-1-ol]

- vapor or sublimation pressure (373.19 K): 101.3 ± 1.5 kPa
SMILES: O [water]
